A melting point compilation (Tetko et al.; mined from patent text by program, amines drawn as free bases though some values may be those of a salt)

| SMILES | melting point [°C] |
| --- | --- |
| N#Cc1cc(-c2ccoc2)c2ccc(COc3cc(F)cc(-c4ccc(Cl)cc4Cl)c3)cc2n1 | 188 to 190 |
| FC(F)(F)c1ccn(-c2ccnc(Cl)n2)n1 | 111 to 112 |
| CCCCCc1nc(C)c(C(=O)OCC)n1Cc1ccc2oc(-c3ccccc3-c3nnn[nH]3)c(Br)c2c1 | 103 to 104 |
| O=C(O)CCC(=O)N[C@@H](Cc1ccc(-c2ccccc2)cc1)C(=O)NCCCCNc1ncccn1 | 200 to 205 |
| OCC1OC(n2cnc3c2N=CNCC3O)C(O)C1O (stereo not drawn) | 178 to 183 |
| Cc1ccccc1C(=O)NCN1CCN(c2ccccc2C#N)CC1 | 62 to 64 |
| CC(C)c1cccc(C(C)C)c1NC(=S)C1c2ccccc2COc2ccc(Br)cc21 (stereo not drawn) | 190 to 191 |
| CCCSc1nc(Br)c(Br)n1Cc1cc2c(cc1Cl)OCO2 | 116 |
| O=C(CCc1ccccc1)NCCCn1ccnc1 | 90 to 92 |
| Cc1c(C)c2c(c(C)c1N)CC(C)(CN1CCC(OCC=Cc3ccccc3)CC1)O2 (stereo not drawn) | 77 to 79 |
| COc1ccc2ccccc2c1C1CCN(CCCCNC(=O)c2ccc(-c3ccc(Cl)cc3)cc2)CC1 | 149 |
| N#CC1=CCOc2ccc(F)cc21 | 114 to 115 |
| O=S(=O)(c1ccccc1)N1C[C@@H](c2c[nH]c3ccccc23)[C@H](c2cn3c4c(cccc24)CCC3)C1 | 115 to 125 |
| COc1ccc2c(c1)CC(NC(C)=O)CC2 (stereo not drawn) | 105 to 108 |
| O=S1(=O)N=CN(C2CC2)c2cc(Br)cc(F)c21 | 285 to 287 |
| CC(C)(C)N1CC(=O)Nc2ccc(Br)cc2C1=O | 205 to 208 |
| N#CC(=Cc1ccc(O)c(O)c1)C(N)=O | 247 |
| CC(C)(C)OC(=O)N[C@H]1CCN(c2nc3c(cc2F)c(=O)[nH]c(=O)n3C2CC2)C1 | 220 to 222 |
| O=C(NCCO)/C(=C/c1ccc(OC2CC2)cc1)NC(=O)c1ccc(OCCC2CC2)cc1 | 132 to 134 |
| CNC(=O)NCCNCC(O)COc1ccc(OCCOCC(C)C)cc1 (stereo not drawn) | 121 |
| N#Cc1cn(COC(CO)CO)c2ncnc(N)c12 | 195 |
| CCN(CC)C(=O)COc1cc(N)c(Cl)cc1C(=O)OC | 97.5 to 99.5 |
| CCOC(=O)c1cc(Cl)c2[nH]ncc2n1 | 276 to 279 |
| CCOC(=O)c1ccc(N2CCN(C)CC2)nn1 | 106 |
| O=C(c1ccn2c1CSC2c1cccnc1)c1cn(S(=O)(=O)c2ccccc2)c2cc(-c3ccc(F)cc3)ccc12 (stereo not drawn) | 115 to 116 |
| CC(C)CN1CCC(CNC(=O)c2cc(Cl)c(N)[nH]c2=O)CC1 | 128 to 133 |

| SMILES | melting point [°C] |
| --- | --- |
| COc1cc2c(cc1O)CC(C)(C)N(C(=O)c1cc(OC)c(OC)c(OC)c1)C2C (stereo not drawn) | 198 to 200 |
| COc1cc2c(cc1O)C(C)(C)CC2 | 43.5 to 44.5 |
| CCCc1c(O)cc(O)c(C)c1C(=O)OC | 88 to 91 |
| Cc1nc(-n2ccc(OCc3ccc(F)cc3)cc2=O)sc1C(=O)O | > 300 |
| Cc1nc(-c2ccc(C(F)(F)F)cc2)sc1COc1ccc(CC(=O)O)cc1Cl | 126 to 127 |
| O=C(O)Cc1ccc(OCc2ccccc2)cc1[N+](=O)[O-] | 145 to 152 |
| C[C@@H]1Cc2ccsc2[C@H](C)N1CCNC(=O)c1c(F)c(F)c(F)c(F)c1F (relative stereo) | 116 to 119 |
| CCN1CC(=O)c2ccc3ccccc3c2S1(=O)=O | 146 to 147 |
| CN(Cc1ccccc1)c1c(-c2ccc(S(C)(=O)=O)cc2)cnn(-c2cccc(Cl)c2)c1=O | 60 to 85 |
| Cc1cc(F)ccc1CCC(=O)O | 112 to 113 |
| COC(=O)CCC(N=O)C(C)(C)Cl (stereo not drawn) | 90 to 91 |
| O=C1N(Cc2ccc(Cl)s2)c2cccc(-c3ccoc3)c2C12COc1cc3c(cc12)OCO3 (stereo not drawn) | 166 to 168 |
| O=C(O)c1ccc2c(c1)S(=O)c1ccccc1C2=O (stereo not drawn) | 295 to 296 |
| Cc1ccc(-c2nc(Sc3ccc(Cl)cc3)cc(N3CCN(CCO)CC3)n2)cc1 | 123 to 125 |
| COC(=O)C(=O)c1ccccc1Nc1c(Cl)cccc1Cl | 124 to 126 |
| CCCCN(CCCC)c1ccc(C=CC2=C(OC)C(=CC=CC3=C(C#N)C(=C(C#N)C#N)OC3(c3ccccc3)C(F)(F)F)CC(C)(C)C2)c(OC)c1 (stereo not drawn) | 153 to 158 |
| Cc1ccc(C)n1-c1c(C(C)C)cc([N+](=O)[O-])cc1C(C)C | 125 to 132 |
| CCCc1nc(-n2cccc2)c(C(=O)OCC)[nH]1 | 134 to 135 |
| CC(=O)NNc1c(C)cnc2c(NC(=O)c3ccccc3C(F)(F)F)cccc12 | 209 to 211 |
| CCCc1c(OCc2ccc(C(=O)O)c(Br)c2)ccc(C(C)=O)c1O | 80 to 83 |
| COC(=O)c1ccc(-c2ccc(Cl)cc2)c(-c2ccc(Cl)cc2Cl)c1 | 136 |
| c1ccc(Cn2cnc3ccc(NC4=NCCN4)cc32)cc1 | 174 to 175 |
| Cc1nc2cc(C(c3ccccc3)n3ccnc3)ccc2n(N)c1=O (stereo not drawn) | 193 |
| COC(=N)NC(=O)NC(C)C | 64 to 67 |
| CN(Cc1cc(C(F)(F)F)cc(C(F)(F)F)c1)C(=O)c1c(Cl)nc2ccccc2c1-c1ccccc1 | 147 to 148 |
| Nc1ccc(C#Cc2ccc(OC3CN4CCC3CC4)nn2)cc1 (stereo not drawn) | 212 to 220 |

| SMILES | melting point [°C] |
| --- | --- |
| CCOC(=O)c1cnc2c(c(C)nc3cc(C)nn32)c1NC | 208 to 210 |
| COc1ccc(-c2cc(N)c(Cl)c(C(=O)O)n2)cc1 | 192 |
| COC(=O)c1cc(CCc2cc(OC)ccc2OC)ccc1N | 50 to 55 |
| COCc1cc(O)c2nc(C)c(C)n2c1 | 164 to 165 |
| CC(=O)N1CCc2ccc(C(=O)CCC(=O)N3CCC(c4ccc(Cl)cc4)CC3)cc2CC1 | 110 to 112 |
| CC[C@H](C)[C@H](NC[C@@H](N)CS)C(=O)N[C@@H](Cc1ccccc1)C(=O)N[C@@H](CCSC)C(=O)OCc1ccccc1 | 71 to 78 |
| CCOC(=O)/C=C/c1cc2c(Nc3ccc4[nH]ccc4c3)c(C#N)cnc2s1 | 226 |
| Cc1nc(-c2ccccc2F)n(O)c1-c1cccnc1 | 65 to 75 |
| COc1ccc(COC(=O)C2N(c3c(C)cccc3C)C(=N)C(C)N2c2c(C)cccc2C)cc1 (stereo not drawn) | 135 to 137 |
| CC(=O)Nc1cc([C@H](O)CN[C@H](C)Cc2ccc(O)cc2)ccc1O | 97 to 100 |
| Cc1ccc(C(Cn2cncn2)c2ccccc2)cc1 (stereo not drawn) | 98 to 100 |
| N#Cc1cc2c(s1)CCCC2NC=O (stereo not drawn) | 131 to 134 |
| Cc1cc(CC2(Cc3cc(C)nc(Cl)c3)c3ccccc3-c3ncccc32)cc(Cl)n1 | 159 to 160 |
| Nc1ccccc1NC(=O)c1ccc(NC(=O)CO)cc1 | 221 to 223 |
| O=C(NCc1cc(C(F)(F)F)cc(C(F)(F)F)c1)c1c(-c2ccccc2)c2ccccc2[nH]c1=O | 251 to 252 |
| O=C(O)C(Cl)CCCCCCCCCCCCC(Cl)C(=O)O (stereo not drawn) | 71 to 72 |
| Cc1ccc(N(C)S(=O)(=O)c2cccs2)c2[nH]c(C3=NCC(CC(=O)O)S3)cc12 (stereo not drawn) | 269 to 270 |
| CCN(CC)C(=O)c1ccc(-c2cc3c(Nc4cccc(Cl)c4)ncnc3[nH]2)cc1 | > 250 |
| Cc1cc(C(F)(F)F)n2nc(NS(=O)(=O)c3ccccc3Cl)nc2n1 | 203 to 204 |
| COc1cc2ncnc(Nc3cc(Cl)c(O)c(Cl)c3)c2cc1OC | 293 to 295 |
| CCSc1ccc(NC(=S)NC(=O)OC)c([N+](=O)[O-])c1 | 152 |
| CN=c1[nH]c2ccccc2c2nc(-c3ccc[nH]3)nn12 | 220 to 221 |
| CNCC(=O)N1c2ccccc2N(C)S(=O)(=O)c2ccccc21 | 135 to 137 |
| COc1ccc(-n2c(=O)cc(OC(C)=O)c3ccccc32)cc1 | 174 to 175 |
| CCOc1ccc(C(=O)C2CC=CCC2C(=O)O)cc1Cl (stereo not drawn) | 123 to 125 |
| Cc1c(O)c(=O)ccn1CCCO | 111 to 113 |

| SMILES | melting point [°C] |
| --- | --- |
| COc1ccc(NC2=NN(c3cccc(C(F)(F)F)c3)CC2)cc1 | 127 to 128 |
| CC(=O)Nc1c(C(=O)c2ccccn2)[nH]c2cc(Cl)ccc12 | 211 to 212 |
| COc1ccc(-n2cnc(-c3cc(OC)cc(OC)c3)c2-c2ccc(OC)c(O)c2)cc1 | 131 to 134 |
| CCn1c(=O)c2c(nc(/C=C/c3ccc(OCC(=O)O)cc3)n2C)n(CC)c1=O | 268 to 269 |
| O=C(NCC(=O)N(c1ccccc1)c1ccccc1)c1ccc2ccccc2c1 | 205 |
| COc1ccc(N2CCN(c3ccc(-n4cccn4)cc3)CC2)cc1 | 208 |
| CCOC(=O)c1nccn1C1Cc2ccc(Cl)cc2C1=O (stereo not drawn) | 180 |
| C(#Cc1cccnc1)c1ccccc1 | 42 to 43 |
| CCOC(=O)C1=C(C(=O)OCC)N(c2ccccc2)C(c2ccccc2)N(c2ccccc2)C1 (stereo not drawn) | 120 |
| CCCc1cc(F)c(C(=O)O)c([N+](=O)[O-])c1O | 128 to 129 |
| O=C(Cc1ccc(F)cc1)c1ccc(F)cc1 | 91 to 93 |
| C=CCCONC(=O)c1nc(-c2ccc(Cl)c(OC)c2F)cc(N)c1Cl | 141 to 143 |
| NC(=O)C(CCC(=O)O)N1Cc2c(N)cccc2C1=O (stereo not drawn) | 334 to 336 |
| CC=NN(C(=O)c1ccc(C)cc1)c1ccc2c(c1)OCCO2 | 121 to 123 |
| COc1nc2cc(Cl)c(Cl)c(N(CCO)S(C)(=O)=O)c2nc1OC | 240 to 242 |
| COC(=O)c1oc(Cl)nc1C | 69 to 71 |
| NC(=O)N(O)Cc1sccc1Br | 138 to 140 |
| COC(=O)C1=C(C)NC(C(C)=O)=C(C(=O)OC)C1c1ccccc1Cl (stereo not drawn) | 161 to 162 |
| O=C(OCc1ccc(-c2ccccc2)cc1)c1cccc(CCl)c1 | 102 |
| C#CCn1c(-c2cc(Cl)nc(Cl)c2)nc(CC)c(OC)c1=O | 112 to 115 |
| Cc1nc(C)c(Cl)c(CNCc2ccc(O)cn2)n1 | 137 to 138 |
| CCCN(C(N)=S)C(COC1CCCCO1)c1ccccc1 (stereo not drawn) | 82 |
| CSC(=S)C1(c2cccc(C)n2)CCCS1 (stereo not drawn) | 80 |
| CCN1C(=O)CNCc2cc(OC)c([N+](=O)[O-])cc21 | 132 to 134 |
| CN1C(=O)CC[C@]2(C)c3ccc(-c4ccc5ccccc5n4)cc3CC[C@@H]12 | 140 to 145 |
